Key:
Influenza A virus [1] = assay: Antiviral activity against influenza A virus A/PR/8/34 (H1N1) infected in MDCK cells by plaque assay; format: functional, organism-based
A549 = assay: Cytotoxicity against human A549 cells by MTS assay; format: functional
[2] = Cytotoxicity against MDCK cells by MTS assay; format: toxicity, cell-based, Canis lupus familiaris; details: dog
Influenza A virus [3] = assay: Antiviral activity against influenza A virus A/Guangdong/1/2009 (H1N1) infected in MDCK cells by plaque assay; format: functional, organism-based
Influenza A virus [4] = assay: Antiviral activity against influenza A virus A/Aichi/2/68 (H3N2) infected in MDCK cells by plaque assay; format: functional, organism-based
HEK-293T = assay: Cytotoxicity against human HEK293T cells by MTS assay; format: functional
Influenza A virus [5] = assay: Antiviral activity against Influenza A virus A (H1N1); format: functional, organism-based
[6] = Cytotoxicity against MDCK cells; format: toxicity, cell-based, Canis lupus familiaris; details: dog
Neuraminidase = Neuraminidase (Influenza A virus, UniProt B4URF0); assay: Inhibition of influenza A virus neuraminidase
Influenza A virus [7] = assay: Antiviral activity against influenza A virus A/California/07/2009 (H1N1) infected in MDCK cells assessed as reduction in cytopathic effect by DAPI staining based analysis; format: functional, organism-based
Influenza A virus [8] = assay: Antiviral activity against influenza A virus A/California/07/2009 (H1N1) infected in MDCK cells assessed as reduction in cytopathic effect by fluorescence based analysis; format: functional, organism-based
Influenza A virus [9] = assay: Antiviral activity against influenza A virus A/Brisbane/59/2009 (H1N1) infected in MDCK cells assessed as reduction in cytopathic effect by fluorescence based analysis; format: functional, organism-based
Influenza A virus [10] = assay: Antiviral activity against influenza A virus A/Udorn/1972 (H3N2) infected in MDCK cells assessed as reduction in cytopathic effect by DAPI staining based analysis; format: functional, organism-based
Influenza A virus [11] = assay: Antiviral activity against influenza A virus H5N1 (RG14) infected in MDCK cells assessed as reduction in cytopathic effect by DAPI staining based analysis; format: functional, organism-based
Influenza A virus [12] = assay: Antiviral activity against influenza A virus A/Brisbane/59/2009 (H1N1) infected in MDCK cells assessed as reduction in cytopathic effect by DAPI staining based analysis; format: functional, organism-based
Influenza A virus [13] = assay: Antiviral activity against influenza A virus A/Udorn/1972 (H3N2) infected in MDCK cells assessed as reduction in cytopathic effect by fluorescence based analysis; format: functional, organism-based
Influenza A virus [14] = assay: Antiviral activity against influenza A virus H5N1 (RG14) infected in MDCK cells assessed as reduction in cytopathic effect by fluorescence based analysis; format: functional, organism-based
[15] = Cytotoxicity against HEK293T cells assessed as reduction in cell viability measured after 48 hrs by Cell-Titer Glo assay; format: toxicity, cell-based, HEK-293T; details: human
[16] = Cytotoxicity against HEK293T cells incubated for 48 hrs by Cell Titer-Glo assay; format: toxicity, cell-based, HEK-293T; details: human
Influenza A virus [17] = assay: Antiviral activity against influenza A virus H1N1, A/California/7/2009; format: functional, organism-based
Influenza A virus [18] = assay: Antiviral activity against influenza A virus […], A/WSN/33; format: functional, organism-based
[19] = Cytotoxicity against MDCK cells assessed as reduction in cell viability; format: toxicity, cell-based, Canis lupus familiaris; details: dog
Influenza A virus [20] = assay: Antiviral activity against influenza A virus H1N1, A/PR/8/34; format: functional, organism-based
[21] = Cytotoxicity against MDCK cells assessed as reduction in cell viability measured after 72 hrs by fluorescence based assay; format: toxicity, Canis lupus familiaris; details: dog
Influenza A virus [22] = assay: Antiviral activity against influenza A virus A/WSN/1933 (H1N1) infected in MDCK cells assessed as reduction in cytopathic effect by fluorescence based analysis; format: functional, organism-based
Influenza A virus [23] = assay: Antiviral activity against Influenza A virus A/PR/8/34 (H1N1) infected in human A549 cells pretreated with cell for 3 hrs followed by viral infection and measured for 24 hrs; format: functional, organism-based
[24] = Cytotoxicity against human A549 cells incubated for 48 hrs by neutral red uptake assay; format: toxicity, cell-based
[25] = Cytotoxicity against MDCK cells assessed as reduction in cell viability measured after 72 hrs by MTT assay; format: toxicity, cell-based, Canis lupus familiaris; details: dog
Influenza A virus [26] = assay: Antiviral activity against influenza A virus H5N1,A/Vietnam/1194/2004 infected in MDCK cells assessed as reduction in plaque formation incubated for 72 hrs by crystal violet staining based analysis; format: functional, organism-based; details: H5N1,A/Vietnam/1194/2004, MDCK
Influenza A virus [27] = assay: Antiviral activity against influenza A virus H1N1,A/WSN/1933 infected in MDCK cells assessed as reduction in plaque formation incubated for 72 hrs by crystal violet staining based analysis; format: functional, organism-based; details: H1N1,A/WSN/1933, MDCK
Influenza A virus [28] = assay: Antiviral activity against Influenza A virus A/PR/8/34 (H1N1); format: functional, organism-based
Influenza A virus [29] = assay: Antiviral activity against Influenza A virus A/Brisbane/10/2007 (H3N2); format: functional, organism-based
Influenza B virus [30] = assay: Antiviral activity against Influenza B virus B/Victoria; format: functional, organism-based
Influenza B virus [31] = assay: Antiviral activity against Influenza B virus B/Yamagata; format: functional, organism-based
Influenza A virus [32] = assay: Antiviral activity against influenza A H5N1 infected in MDCK cells assessed as viral growth inhibition measured for 12 to 72 hrs; format: functional, organism-based
[33] = Cytotoxicity against MDCK cells incubated for 72 hrs by CCK-8 assay; format: toxicity, cell-based, Canis lupus familiaris; details: dog

Sequence of Neuraminidase (B4URF0 whole entry): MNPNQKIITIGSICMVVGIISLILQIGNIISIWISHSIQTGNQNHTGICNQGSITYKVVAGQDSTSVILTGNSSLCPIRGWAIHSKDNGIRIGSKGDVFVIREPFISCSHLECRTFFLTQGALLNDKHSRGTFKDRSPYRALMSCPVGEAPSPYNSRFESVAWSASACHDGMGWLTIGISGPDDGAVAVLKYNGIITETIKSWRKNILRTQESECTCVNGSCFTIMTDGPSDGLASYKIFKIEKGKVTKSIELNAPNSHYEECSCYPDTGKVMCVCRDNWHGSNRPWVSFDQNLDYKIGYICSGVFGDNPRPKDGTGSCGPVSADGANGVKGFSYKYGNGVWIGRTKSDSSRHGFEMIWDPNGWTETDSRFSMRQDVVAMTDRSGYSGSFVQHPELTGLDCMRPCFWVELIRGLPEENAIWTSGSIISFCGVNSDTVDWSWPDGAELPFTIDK

In the case of `O=C(NC1CCCCCC1)c1cc2c(s1)-c1ccsc1CC2`, the EC50 (Influenza A virus [1]) is reported as 1.03 µM, the CC50 (A549) is reported as > 100 µM and the CC50 [2] is reported as > 100 µM. For the same compound, the EC50 (Influenza A virus [3]) was 1.14 µM, the EC50 (Influenza A virus [4]) was 0.41 µM and the CC50 (HEK-293T) was > 100 µM.

Compound `C=C1Cc2cc(C(F)(F)F)ccc2C(=O)NCC(C)(C)/C(=N/OC)CCCCOC1=O` has an EC50 (Influenza A virus [5]) of 2.3 µM and a CC50 [6] of 211 µM.

In the case of `Cc1onc(-c2ccccc2Cl)c1C(=O)N1CCN(c2ccc([N+](=O)[O-])cc2Cl)CC1`, the IC50 (Neuraminidase) is reported as 0.1 µM, the EC50 (Influenza A virus [7]) is reported as 1.2 µM and the EC50 (Influenza A virus [8]) is reported as 4.2 µM. The EC50 (Influenza A virus [9]) was 1.2 µM, the EC50 (Influenza A virus [10]) was 0.7 µM and the EC50 (Influenza A virus [11]) was 0.32 µM. It also gave an EC50 (Influenza A virus [12]) of 1.2 µM, an EC50 (Influenza A virus [13]) of 0.7 µM and an EC50 (Influenza A virus [14]) of 0.32 µM. The CC50 at 48 h [15] was > 100 µM and the CC50 at 48 h [16] was > 100 µM.

In the case of `CC(=O)c1cc(O)ccc1O[C@@H]1O[C@H](CO)[C@@H](O)[C@H](OC(=O)c2cc(O)c(O)c(O)c2)[C@H]1OC(=O)c1cc(O)c(O)c(O)c1`, the EC50 (Influenza A virus [17]) is reported as 30.7 µM, the EC50 (Influenza A virus [18]) is reported as 24.6 µM and the CC50 [19] is reported as > 1000 µM. The EC50 (Influenza A virus [20]) was 30.7 µM.

In the case of `CN(C)S(=O)(=O)N1CCCC(CNC(=O)c2cccc(C(F)(F)F)c2)C1` (stereo not given), the CC50 at 72 h [21] is reported as > 100 µM and the EC50 (Influenza A virus [22]) is reported as 0.28 µM.

In the case of `CCc1ccc(NC(=O)COC(=O)c2ccc3ccccc3n2)cc1`, the EC50 (Influenza A virus [23]) is reported as 51.6 µM and the CC50 at 48 h [24] is reported as > 400 µM.

In the case of `CCc1ccccc1N(CC(=O)Nc1cc(C)cc(C)c1)S(C)(=O)=O`, the CC50 at 72 h [25] is reported as > 100 µM, the EC50 (Influenza A virus [26]) is reported as 0.086 µM and the EC50 (Influenza A virus [27]) is reported as 0.007 µM.

Compound `COc1cccc(OC)c1C(=O)/C=C/c1nc(C)c(C)nc1C` has an EC50 (Influenza A virus [28]) of 2.74 µM, an EC50 (Influenza A virus [29]) of 3.44 µM and an EC50 (Influenza B virus [30]) of 3.13 µM. For the same compound, the EC50 (Influenza B virus [31]) was 2.41 µM and the CC50 [6] was 41.5 µM.

`CC(=O)c1cc(O)ccc1O[C@@H]1O[C@H](COC(=O)c2cc(O)c(O)c(O)c2)[C@@H](O)[C@H](OC(=O)c2cc(O)c(O)c(O)c2)[C@H]1O` gave an EC50 (Influenza A virus [17]) of 29.2 µM, an EC50 (Influenza A virus [18]) of 11.6 µM and a CC50 [19] of 964 µM. The EC50 (Influenza A virus [20]) was 20.2 µM.

With `NC(=O)c1nc(F)cnc1O` [FAVIPIRAVIR] the EC50 (Influenza A virus [17]) was 37.4 µM, the EC50 (Influenza A virus [18]) was 37.4 µM and the CC50 [19] was > 1000 µM. For the same compound, the EC50 (Influenza A virus [20]) was 37.4 µM.

In the case of `O[C@H]1[C@H]2c3cc4c(cc3CN3CCC(=C[C@@H]1O)[C@H]23)OCO4` [LYCORINE], the EC50 (Influenza A virus [32]) is reported as < 0.46 µM and the CC50 at 72 h [33] is reported as 20.9 µM.
